We go through 2 compounds from patent publication US4141986A, “Antibiotics 890A2 and 890A5” (Merck & Co., Inc., priority 1977, dated 1979).

Series [1] relates to Serratia marcesens ATCC 990. As to the kind of experiment: In vitro antibacterial spectrum profile, agar diffusion. The class given is cell-based. Conditions: read-out: Inhib. Zone Diam. A general note: In agar diffusion tests the substance spreads into inoculated agar from a disc or well.
Series [2] relates to Staphylococcus aureus MB-698. The series is described as above. Format: cell-based. Conditions: read-out: Inhib. Zone Diam.
For series [3], the system named is Vibrio percolans +2 × 10^5 units/ml. penicillinase MB-1272. The series is described as follows: In vitro antibacterial spectrum profile, agar diffusion, with penicillinase. Format: cell-based. The note with it: Comamonas terrigena, read-out: Inhib. Zone Diam.
The subject of series [4] is Difco penicillinase and lactamase(s) produced by a cephalosporin C-resistant strain of Vibrio percolans (MB-2566). As to the kind of experiment: Inactivation by penicillinase and lactamase(s), from the antibiotic spectra. Conditions: judged from the spectra of Table III. The class given is cell-based. On the procedure:
(§1) The test to determine the antibiotic spectrum profile of antibiotic 890A2 is carried out by saturating 1/4 inch diameter paper discs in a solution of antibiotic 890A2 in 5% methanol at a concentration of 5 μg./ml.; air drying the saturated paper discs and placing them on the surface of 100 × 15 mm. petri plates containing 5 ml. of seeded nutrient agar plus 0.2% yeast extract.
(§2) The test to determine the antibiotic spectrum profile of antibiotic 890A5 is carried out by application of a 0.015 ml. droplet of a 33 μg./ml. aqueous solution of the antibiotic on the surface of a 100 × 15 mm. petri plate containing 5 ml. of seeded nutrient agar plus 0.2% yeast extract.
The spectra of antibiotic 890A2 and 890A5 are quite similar, except for the resistance of 890A5 to inactivation by Difco penicillinase and by lactamase(s) produced by a cephalosporin C-resistant strain of Vibrio percolans (MB-2566).

In series [5] the test system is Proteus vulgaris (episome) MB-2112. The series is described as follows: In vitro antibacterial spectrum profile, agar diffusion. The note with it: read-out: Inhib. Zone Diam. Format: cell-based. On the procedure: as §1, §2
^a this episome confers resistance to tetracycline, chloramphenicol,
kanamycin and streptomycin at a concentration of 20 μg./ml. and
neomycin at a concentration of 25 μg./ml. and sulfa drugs.

Series [6] deals with Salmonella schottmuellari MB-2837. The series is described as follows: In vivo protection of intraperitoneally infected mice. The note with it: ip, at the time of infection and again 6 hours later; sample of 59 units/ml.; survival data of the seventh day. The protocol:
In determining the in vivo activity, antibiotic 890A2 is dissolved in 0.15M NaCl, 0.01M sodium phosphate, pH 7.0, and diluted with water to provide five fourfold concentrations of drug for testing. Female white Swiss mice, averaging about 21 g. in weight, were infected intraperitoneally with the test organism suspended in broth. The numbers of organisms injected were determined by standard plate-count techniques. At the time of infection and again 6 hours later, certain of the mice were treated intraperitoneally with the antibiotic. Five mice were used for each concentration of drug tested. An additional two mice, not infected, were treated with the antibiotic to determine whether the amount of agent injected was toxic. Controls of five mice for each of several dilutions of the infecting culture were included in each test in order to calculate the numbers of organisms that were lethal to 50% of the infected, untreated mice (LD50). This calculation was made using survival data of the seventh day after infection, at which time the amount of drug that should protect 50% of the infected mice (ED50) also was calculated.
All animals receiving this challenge and not treated with antibiotic died within 48 hours of the infection. The efficacy of antibiotic 890A2, having a potency of 59 units/ml., against Salmonella schottmuellari MB-2837 is set forth below: […]

The next series can be described thus: Solubility in water. Format: physicochemical. The note with it: sodium salt, white powder as lyophilized.
Setting [7] is: 890A5 33 μg./ml., 0.015 ml. droplet.
[8] abbreviates: 890A2 5 μg./ml., 1/4 inch paper disc.

For `CC(=O)NC=CSC1=C(C(=O)O)N2C(=O)C(C(C)O)C2C1` (centres unmarked) [Antibiotic 890A5], the zone of inhibition at 33 µg/mL in series [1] (ATCC990, 890A5 33 μg./ml., 0.015 ml. droplet) is 29 mm; in series [2] (MB698, 890A5 33 μg./ml., 0.015 ml. droplet), 35 mm; in series [3] (setting [7]), 40 mm; in series [5] (setting [7]) it was 23 mm. In addition, in series [4], the “inactivation by Difco penicillinase and by lactamase(s) of Vibrio percolans MB-2566” value was “resistance”.
Consider `CC(=O)NC=CSC1=C(C(=O)O)N2C(=O)C(C(C)O)C2C1` (centres unmarked) [Antibiotic 890A2], for which the zone of inhibition at 5 µg/mL amounted to 23 mm in series [1] (ATCC990, 890A2 5 μg./ml., 1/4 inch paper disc); 30 mm in series [2] (MB698, 890A2 5 μg./ml., 1/4 inch paper disc); 7 mm in series [3] (setting [8]); 33 mm in series [5] (setting [8]). The “ED50 × 2 doses” value in series [6] turned out to be 19 Units. The solubility in water entry in the series “Solubility in water” is given as “very soluble in water”.
